# From patent US20260028354A1, “TETRAHYDRONAPHTHALENE DERIVATIVES AS ESTROGEN RECEPTOR DEGRADERS” (REGENT OF THE UNIVERSITY OF MICHIGAN, priority 2022, published 2026)
# Where two headings read alike, the source gives them in different places.
# What was measured:
# [1] = Western blot analysis for "B" compounds; format: cell-based; details: read-out: Traditional Western Degradation Potency (DC50)
# Outline: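 Target protein levels given as relative mean band intensity over GAPDH from scanned immunoblots. Lysates of treated cells in RIPA buffer, equalized by BCA, separated on 10% gels and transferred to PVDF.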
# [2] = Cell growth assay (WST-8) for "B" compounds; format: cell-based; details: read-out: Cell growth Inhibition in T47D cell line IC50
# Method: Cell Growth Assay. The cells were seeded at 1500/well in 96 well plates overnight. One day after the seeding, they were treated with indicated doses of compounds respectively, 4 days after the compound treatment, 10% WST-8 reagent was added to the culture medium and incubate in a CO2 incubator at 37° C. for 2.5 hours. Before reading, the plate was mixed gently on an orbital shaker for one minute to ensure homogeneous distribution of color. The absorbance was measured of each sample using a microplate reader at a wavelength of 450 nm. The relative absorbance was calculated against the vehicle control from three individually repeats.
SMILES,DC50 [1],IC50 ([2]; T47D cell line),"IC50 ([2]; T47D, T47D cell line)",IC50 ([2]; T47D)
"O=C1CCC(N2C(=O)c3cc4c(cc3C2=O)CN(CC(=O)N2CC3(CCN(c5ccc([C@@H]6c7ccc(O)cc7CC[C@@H]6c6ccccc6)cc5)CC3)C2)C4)C(=O)N1 (mixture of isomers) [Compound B5, 2-(2,6-dioxopiperidin-3-yl)-6-(2-(7-(4-((1R,2S)-6-hydroxy-2-phenyl-1,2,3,4-tetrahydronaphthalen-1-yl)phenyl)-2,7-diazaspiro[3.5]nonan-2-yl)-2-oxoethyl)-6,7-dihydropyrrolo[3,4-f]isoindole-1,3(2H,5H)-dione]",< 10 nM,> 10 nM,–,–
"O=C1CCC(N2C(=O)c3cc4c(cc3C2=O)CN(CC(=O)N2CCC3(CC2)CCN(c2ccc([C@@H]5c6ccc(O)cc6CC[C@@H]5c5ccccc5)cc2)CC3)C4)C(=O)N1 (mixture of isomers) [Compound B12, 2-(2,6-dioxopiperidin-3-yl)-6-(2-(9-(4-((1R,2S)-6-hydroxy-2-phenyl-1,2,3,4-tetrahydronaphthalen-1-yl)phenyl)-3,9-diazaspiro[5.5]undecan-3-yl)-2-oxoethyl)-6,7-dihydropyrrolo[3,4-f]isoindole-1,3(2H,5H)-dione]",10 to 100 nM,> 10 nM,–,–
"C[C@H]1CC2(CCN(c3ccc([C@@H]4c5ccc(O)cc5CC[C@@H]4c4ccccc4)cc3)CC2)CN1C(=O)CN1Cc2cc3c(cc2C1)C(=O)N(C1CCC(=O)NC1=O)C3=O (mixture of isomers) [Compound B23, 2-(2,6-dioxopiperidin-3-yl)-6-(2-((S)-8-(4-((1R,2S)-6-hydroxy-2-phenyl-1,2,3,4-tetrahydronaphthalen-1-yl)phenyl)-3-methyl-2,8-diazaspiro[4.5]decan-2-yl)-2-oxoethyl)-6,7-dihydropyrrolo[3,4-f]isoindole-1,3(2H,5H)-dione]",10 to 100 nM,–,> 10 nM,–
"C[C@H]1CC2(CCN(C(=O)CN3Cc4cc5c(cc4C3)C(=O)N(C3CCC(=O)NC3=O)C5=O)CC2)CN1c1ccc([C@@H]2c3ccc(O)cc3CC[C@@H]2c2ccccc2)cc1 (mixture of isomers) [Compound B24, 2-(2,6-dioxopiperidin-3-yl)-6-(2-((S)-2-(4-((1R,2S)-6-hydroxy-2-phenyl-1,2,3,4-tetrahydronaphthalen-1-yl)phenyl)-3-methyl-2,8-diazaspiro[4.5]decan-8-yl)-2-oxoethyl)-6,7-dihydropyrrolo[3,4-f]isoindole-1,3(2H,5H)-dione]",10 to 100 nM,–,> 10 nM,–
"C[C@H]1CC2(CCN(c3ccc([C@@H]4c5ccc(O)cc5CC[C@@H]4c4ccccc4)cc3)CC2)CN1CC(=O)N1Cc2cc3c(cc2C1)C(=O)N(C1CCC(=O)NC1=O)C3=O (mixture of isomers) [Compound B30, 2-(2,6-dioxopiperidin-3-yl)-6-(2-((S)-8-(4-((1R,2S)-6-hydroxy-2-phenyl-1,2,3,4-tetrahydronaphthalen-1-yl)phenyl)-3-methyl-2,8-diazaspiro[4.5]decan-2-yl)acetyl)-6,7-dihydropyrrolo[3,4-f]isoindole-1,3(2H,5H)-dione]",> 100 nM,–,> 10 nM,–
"O=C1CC[C@H](N2Cc3c(ccc4c3OC[C@H]3CN(CC5COC6(CCN(c7ccc([C@@H]8c9ccc(O)cc9CC[C@@H]8c8ccccc8)cc7)CC6)C5)CCN43)C2=O)C(=O)N1 (stereo partly drawn) [Compound B226, (3S)-3-((5aR)-7-((8-(4-((1R,2S)-6-hydroxy-2-phenyl-1,2,3,4-tetrahydronaphthalen-1-yl)phenyl)-1-oxa-8-azaspiro[4.5]decan-3-yl)methyl)-1-oxo-1,3,5,5a,6,7,8,9-octahydro-2H-pyrazino[1′,2′: 4,5][1,4]oxazino[2,3-e]isoindol-2-yl)piperidine-2,6-dione]",–,–,–,< 1 nM
"O=C1CCC(N2Cc3c(ccc4c3OC[C@@H]3CN(C(=O)CN5CCN(c6ccc([C@@H]7c8ccc(O)cc8CC[C@@H]7c7ccccc7)cc6)CC5)CCN43)C2=O)C(=O)N1 (stereo partly drawn) [Compound B244, 3-((S)-7-(2-(4-(4-((1R,2S)-6-hydroxy-2-phenyl-1,2,3,4-tetrahydronaphthalen-1-yl)phenyl)piperazin-1-yl)acetyl)-1-oxo-1,3,5,5a,6,7,8,9-octahydro-2H-pyrazino[1′,2′:4,5][1,4]oxazino[2,3-e]isoindol-2-yl)piperidine-2,6-dione]",–,–,–,< 1 nM
"O=C1CCC(N2Cc3c(ccc4c3OC[C@H]3CN(C(=O)CN5CCN(c6ccc([C@@H]7c8ccc(O)cc8CC[C@@H]7c7ccccc7)cc6)CC5)CCN43)C2=O)C(=O)N1 (stereo partly drawn) [Compound B249, 3-((R)-7-(2-(4-(4-((1R,2S)-6-hydroxy-2-phenyl-1,2,3,4-tetrahydronaphthalen-1-yl)phenyl)piperazin-1-yl)acetyl)-1-oxo-1,3,5,5a,6,7,8,9-octahydro-2H-pyrazino[1′,2′:4,5][1,4]oxazino[2,3-e]isoindol-2-yl)piperidine-2,6-dione]",–,–,–,< 1 nM
"O=C1CC[C@H](N2Cc3c(ccc4c3OC[C@H]3CN(CC5CC6(C5)CN(c5ccc([C@@H]7c8ccc(O)cc8CC[C@@H]7c7ccccc7)cc5)C6)CCN43)C2=O)C(=O)N1 [Compound B351, (S)-3-((R)-7-((2-(4-((1R,2S)-6-hydroxy-2-phenyl-1,2,3,4-tetrahydronaphthalen-1-yl)phenyl)-2-azaspiro[3.3]heptan-6-yl)methyl)-1-oxo-1,3,5,5a,6,7,8,9-octahydro-2H-pyrazino[1′,2′:4,5][1,4]oxazino[2,3-e]isoindol-2-yl)piperidine-2,6-dione]",–,–,–,1 to 10 nM
"O=C1CC[C@H](N2Cc3cc4c(cc3C2=O)OCC2(CN(CC3CCN(c5ccc([C@@H]6c7ccc(O)cc7CC[C@@H]6c6ccccc6)cc5)CC3)C2)O4)C(=O)N1 [Compound B395, (S)-3-(1-((1-(4-((1R,2S)-6-hydroxy-2-phenyl-1,2,3,4-tetrahydronaphthalen-1-yl)phenyl)piperidin-4-yl)methyl)-6′-oxo-6′,8′-dihydro-3′H,7′H-spiro[azetidine-3,2′-[1,4]dioxino[2,3-f]isoindol]-7′-yl)piperidine-2,6-dione]",–,–,1 to 10 nM,–
"O=C1CC[C@H](N2Cc3c(ccc4c3OC[C@H]3CN(C[C@@H]5COC6(CCN(c7ccc([C@@H]8c9ccc(O)cc9CC[C@@H]8c8ccccc8)cc7)CC6)C5)CCN43)C2=O)C(=O)N1 [Compound B396, (S)-3-((R)-7-(((R)-8-(4-((1R,2S)-6-hydroxy-2-phenyl-1,2,3,4-tetrahydronaphthalen-1-yl)phenyl)-1-oxa-8-azaspiro[4.5]decan-3-yl)methyl)-1-oxo-1,3,5,5a,6,7,8,9-octahydro-2H-pyrazino[1′,2′:4,5][1,4]oxazino[2,3-e]isoindol-2-yl)piperidine-2,6-dione]",–,–,–,< 1 nM
"O=C1CC[C@H](N2Cc3c(ccc4c3OC[C@H]3CN(C[C@H]5COC6(CCN(c7ccc([C@@H]8c9ccc(O)cc9CC[C@@H]8c8ccccc8)cc7)CC6)C5)CCN43)C2=O)C(=O)N1 [Compound B397, (S)-3-((R)-7-(((S)-8-(4-((1R,2S)-6-hydroxy-2-phenyl-1,2,3,4-tetrahydronaphthalen-1-yl)phenyl)-1-oxa-8-azaspiro[4.5]decan-3-yl)methyl)-1-oxo-1,3,5,5a,6,7,8,9-octahydro-2H-pyrazino[1′,2′:4,5][1,4]oxazino[2,3-e]isoindol-2-yl)piperidine-2,6-dione]",–,–,–,< 1 nM
